Test results: the SangsterLogP compilation

Compound	logP
CCC(=O)O[C@H]1[C@H](OC(=O)CC)[C@@H](CO)O[C@H]1n1cnc2c(OC)ncnc21	2.07
COc1ncnc2c1ncn2[C@@H]1O[C@H](CO)[C@@H](OC(=O)COc2ccccc2)[C@@H]1OC(=O)COc1ccccc1	3.4
CCCCC(=O)OC[C@H]1O[C@@H](n2cnc3c(OC)ncnc32)[C@@H](OC(=O)CCCC)[C@@H]1O	3.58
CCC(=O)OC[C@H]1O[C@@H](n2cnc3c(OC)ncnc32)[C@@H](O)[C@@H]1OC(=O)CC	2.7
CCCCC(=O)O[C@H]1[C@H](OC(=O)CCCC)[C@@H](CO)O[C@H]1n1cnc2c(OC)ncnc21	3.83
COc1ncnc2c1ncn2[C@@H]1O[C@H](CO)[C@@H](OC(=O)C(C)C)[C@@H]1OC(=O)C(C)C	2.82
COc1ncnc2c1ncn2[C@@H]1O[C@H](CO)[C@@H](OC(=O)Cc2ccccc2)[C@@H]1OC(=O)Cc1ccccc1	3.48
COc1ncnc2c1ncn2[C@@H]1O[C@H](COC(=O)c2ccccc2)[C@@H](O)[C@@H]1OC(=O)c1ccccc1	3.39
CCCC(=O)OC1C(CO)OC(n2cnc3c(OC)ncnc32)C1OC(=O)CCC (stereo not given)	2.9
COc1ncnc2c1ncn2[C@@H]1O[C@H](COC(C)=O)[C@@H](O)[C@@H]1OC(C)=O	1.4
COc1ncnc2c1ncn2[C@@H]1O[C@H](COC(C)=O)[C@@H](OC(C)=O)[C@@H]1OC(C)=O	1.93
COc1ncnc2c1ncn2[C@@H]1O[C@H](COC(=O)C(C)C)[C@@H](OC(=O)C(C)C)[C@@H]1O	3.63
COc1ncnc2c1ncn2[C@@H]1O[C@H](CO)[C@@H](OC(=O)c2ccccc2)[C@@H]1OC(=O)c1ccccc1	3.71
COc1ncnc2c1ncn2[C@@H]1O[C@H](COC(=O)COc2ccccc2)[C@@H](OC(=O)COc2ccccc2)[C@@H]1O	4.06
COc1ncnc2c1ncn2[C@@H]1O[C@H](CO)[C@@H](OC(C)=O)[C@@H]1OC(C)=O	1.33
COc1ncnc2c1ncn2[C@@H]1O[C@H](COC(=O)C(C)C)[C@@H](O)[C@@H]1OC(=O)C(C)C	2.7
COc1ncnc2c1ncn2[C@@H]1O[C@H](COC(C)=O)[C@@H](OC(C)=O)[C@@H]1O	1.75
CCCC(=O)OC[C@H]1O[C@@H](n2cnc3c(OC)ncnc32)[C@@H](O)[C@@H]1OC(=O)CCC	3.67
COc1ncnc2c1ncn2[C@@H]1O[C@H](COS(C)(=O)=O)[C@@H](OS(C)(=O)=O)[C@@H]1OS(C)(=O)=O	0.58
COc1ncnc2c1ncn2[C@@H]1O[C@H](COC(=O)Cc2ccccc2)[C@@H](OC(=O)Cc2ccccc2)[C@@H]1O	4.37
COc1ccc(C(=O)OC[C@H]2O[C@@H](n3cnc4c(OC)ncnc43)[C@@H](OC(=O)c3ccc(OC)cc3)[C@@H]2O)cc1	3.65
COc1ncnc2c1ncn2[C@@H]1O[C@H](CO)[C@@H](OC(=O)C(C)(C)C)[C@@H]1OC(=O)C(C)(C)C	3.61
COc1ncnc2c1ncn2[C@@H]1O[C@H](COC(=O)C(C)(C)C)[C@@H](O)[C@@H]1OC(=O)C(C)(C)C	3.4
COc1ncnc2c1ncn2[C@@H]1O[C@H](CO)[C@@H](O)[C@@H]1O	0.5
CCC(=O)OC[C@H]1O[C@@H](n2cnc3c(OC)ncnc32)[C@@H](OC(=O)CC)[C@@H]1OC(=O)CC	2.75
